Entries after “also recorded” stand apart in the source; their conditions may differ. Structures can show the parent of a compound that is named as a salt. Where two headings read alike, the source gives them in different places. Numbered stars: 1 amine (or outer) side, 2 acyl side, 3 side chain; on linkers, the order of the positions; unused ones are H or OH. Square brackets hold non-standard residues; d marks the D form. Peptide text beside a SMILES is read from it. * marks the point of attachment. Sta = CC(C)C[C@H](N)[C@@H](O)CC(=O)O; Isovaleryl = CC(C)CC(=O)*; Cbz = O=C(OCc1ccccc1)*; CO = O=C([*:1])[*:2]; CH2Cl = ClC*
Columns and labels:
recombinant SmPOP = recombinant SmPOP (Schistosoma mansoni, UniProt A0A5K4EZK1); experiment: biochemical; type: biochemical
human POP (HsPOP) = biological target: T1, human POP (HsPOP) (Homo sapiens, UniProt P48147); experiment: biochemical
T1 sequence (P48147 1-710): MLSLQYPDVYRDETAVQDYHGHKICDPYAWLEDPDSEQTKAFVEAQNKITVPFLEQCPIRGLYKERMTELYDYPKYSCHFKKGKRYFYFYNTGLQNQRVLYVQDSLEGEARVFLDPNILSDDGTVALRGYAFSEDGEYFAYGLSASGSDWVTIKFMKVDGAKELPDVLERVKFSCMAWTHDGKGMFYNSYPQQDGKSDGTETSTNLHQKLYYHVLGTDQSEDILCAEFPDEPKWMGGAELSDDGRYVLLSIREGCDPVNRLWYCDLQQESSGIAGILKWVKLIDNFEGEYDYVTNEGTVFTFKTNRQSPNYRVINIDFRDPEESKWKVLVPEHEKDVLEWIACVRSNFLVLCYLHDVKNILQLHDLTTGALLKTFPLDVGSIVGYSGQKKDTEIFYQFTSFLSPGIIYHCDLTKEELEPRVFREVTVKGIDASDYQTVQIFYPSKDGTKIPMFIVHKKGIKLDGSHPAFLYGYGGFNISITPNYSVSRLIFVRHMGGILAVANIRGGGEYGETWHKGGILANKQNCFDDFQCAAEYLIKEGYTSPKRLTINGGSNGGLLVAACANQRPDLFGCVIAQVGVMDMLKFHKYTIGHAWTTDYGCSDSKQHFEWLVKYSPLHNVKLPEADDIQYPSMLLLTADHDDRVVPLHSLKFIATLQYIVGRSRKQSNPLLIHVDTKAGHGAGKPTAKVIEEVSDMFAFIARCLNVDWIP

[1] = test system: newly transformed schistosomula (NTS); experiment: Parasite assay and phenotype scoring with NTS in culture; type: cell-based, Schistosoma mansoni; settings: inhibitors at 10 μM and 1 μM, up to 4 days, grade I most severe
Procedure: NTS (200–300 parasites) were incubated in 200 μL of Basch Medium 169 and supplements, as described above. Inhibitors were added at final concentrations of 1 or 10 μM (0.5% DMSO final) and the incubations continued for 4 days. Grading of phenotypic responses arising as a function of time and concentration was modified after Jilkova et al.: Grade I, dead NTS by 2 days of culture at 10 μM and dying/dead NTS by 3 days at 1 μM. Grade II, dead NTS by 3 days at 10 μM and round/dark/dying by 3 days at 1 μM; Grade III, round/dark by 3 days at 1 and 10 μM concentrations (S1 Fig). ‘Dead’ was adjudicated as the loss of normal shape and the lack of movement often accompanied by obvious internal disruptions. ‘Dying’ was similar to death except that movement was detectable. Otherwise, the terms ‘round/dark’ were used to indicate less severe but obvious changes in the parasites relative to DMSO controls.

[2] = test system: SmPOP activity of live NTS and adult schistosomes; experiment: Fluorescence SmPOP activity assay with cultured schistosomes; type: cell-based, Schistosoma mansoni; settings: 1 μM inhibitor; NTS or adult worms in culture
Procedure: Adult worms (3 pairs) or approximately 150 NTS were incubated at 37°C and 5% CO2 for 2 days in 200 μL of Basch Medium 169 containing 5% FBS, 100 units/mL of penicillin and 100 μg/mL using black clear bottomed 96-well microplates (Costar). After incubation, half of the medium (100 μl) was transferred to an empty well leaving the parasites in the remaining half. Then SmPOP activity was measured in both wells upon the addition of 20 μL of Z-Gly-Pro-AMC (prepared as a 250 μM stock in Basch Medium 169) and in the presence or absence of 1 μM of the POP inhibitor, Z-Ala-Pro-CMK. Controls contained medium alone.

[3] = test system: adult schistosomes (cleavage of angiotensin I and bradykinin); experiment: Hydrolysis of peptide hormones by cultured schistosomes (MALDI-TOF); type: cell-based, Schistosoma mansoni; settings: live adults in culture; 16 h; mass spectrometry
Procedure: Five adult schistosome pairs were placed into clear, 24-well, flat-bottom plates (Costar) containing 500 μL Basch Medium […] [28], supplemented with 2.5% FBS, 100 units/mL penicillin and 100 μg/mL streptomycin. Human angiotensin I or bradykinin in 5 μL water was added to a final concentration of 100 μM and the incubation continued for 16 h at 37°C under a 5% CO2 atmosphere. In control experiments, the peptides were cultivated in the same system in the absence of schistosomes. After incubation, the samples were ZipTiped and the resulting fragments were analyzed using MALDI-TOF performed on an UltrafleXtreme (Bruker Daltonik) operated in reflectron mode with an acceleration voltage of 25 kV and a pulsed ion extraction of 120 ns. Desorption and ionization were achieved using a Smartbeam II laser. α-Cyano-4-hydroxycinnamic acid was used as a matrix. The data were acquired from m/z 220 to 3700 and analyzed with the FlexAnalysis 3.3 software (Bruker Daltonik). The mass spectra were externally calibrated using a Peptide Calibration Standard I (Bruker Daltonik) and averaged from 3000 laser shots.

Molecule: CC(C)C[C@H](NC(=O)[C@H]1O[C@@H]1C(=O)O)C(=O)NCCCCN=C(N)N (relative stereo) [E64, trans-Epoxysuccinyl-L-leucylamido(4-guanidino)butane]
- Inhibition (%) (recombinant SmPOP; 10 µM): 6.5±6.1%

Molecule: O=c1oc(Cl)c(Cl)c2ccccc12 [3,4-dichloroisocoumarin]
- Inhibition of rSmPOP activity (in words) (recombinant SmPOP): Partial inhibition
- inhibition at 100 µM (recombinant SmPOP): 77.3 ± 0.6%

Molecule: CC(C)[C@H](NC(=O)[C@H](CCCNC(=N)N)NC(=O)N[C@@H](Cc1ccccc1)C(=O)O)C(=O)N[C@H](C=O)CCCNC(=N)N [Antipain] ({Phe-CO}-Arg-Val-Arg-aldehyde)
- inhibition at 20 µM (recombinant SmPOP): 32.4 ± 1.4%

Molecule: N=C(N)c1ccccc1 [Benzamidine]
- Inhibition of rSmPOP activity (in words) (recombinant SmPOP): only weakly
- inhibition at 10 µM (recombinant SmPOP): 3.7 ± 1.1%

Molecule: CC(C)C[C@H](NC(=O)[C@@H](O)[C@H](N)Cc1ccccc1)C(=O)O [Bestatin]
- inhibition at 1 µM (recombinant SmPOP; read-out: Inhibition (%)): 2.3 ± 2.1%

Molecule: O=C(O)CN(CCN(CC(=O)O)CC(=O)O)CC(=O)O [EDTA]
- Inhibition (%) (recombinant SmPOP; 1000 µM): 3.8±2.3%

Molecule: CC(=O)N[C@@H](CC(C)C)C(=O)N[C@@H](CC(C)C)C(=O)N[C@H](C=O)CCCNC(=N)N [Leupeptin]
- inhibition at 20 µM (recombinant SmPOP): 2.3 ± 1.2%

Molecule: O=S(=O)(F)Cc1ccccc1 [PMSF, phenylmethylsulfonyl fluoride]
- Inhibition of rSmPOP activity (in words) (recombinant SmPOP): Partial inhibition
- Inhibition (%) (recombinant SmPOP; 1000 µM): 47.6±1.6%

Molecule: Cl.NCCc1ccc(S(=O)(=O)F)cc1 [Pefabloc SC]
- Inhibition of rSmPOP activity (in words) (recombinant SmPOP): Partial inhibition; also recorded: only weakly
- Inhibition (%) (recombinant SmPOP; 1000 µM): 12.0±3.1%

Molecule: CC(C)CC(=O)N[C@H](C(=O)N[C@H](C(=O)N[C@@H](CC(C)C)[C@@H](O)CC(=O)N[C@@H](C)C(=O)N[C@@H](CC(C)C)[C@@H](O)CC(=O)O)C(C)C)C(C)C [Pepstatin A] (Isovaleryl-VV[Sta]A[Sta]-OH)
- inhibition at 1 µM (recombinant SmPOP): 7.3 ± 3.5%

Molecule: O=C([C@@H]1C[C@@H](O)CN1C(=O)CCCOc1ccccc1/C=C/c1ccccc1)N1CCSC1 [SUAM 14746]
- IC50 (human POP (HsPOP); read-out: IC50 human POP): 0.083 µM
- IC50 (recombinant SmPOP; read-out: IC50 SmPOP): 0.092 µM
- Severity of phenotype against parasite, Grade [1]: no effect

Molecule: Cc1ccc(S(=O)(=O)N[C@@H](CCCCN)C(=O)CCl)cc1 [TLCK, Nα-Tosyl-L-lysine chloromethyl ketone]
- Inhibition of rSmPOP activity (in words) (recombinant SmPOP): Partial inhibition
- Inhibition (%) (recombinant SmPOP; 1 µM): 38.3±1.2%

Molecule: Cc1ccc(S(=O)(=O)N[C@@H](Cc2ccccc2)C(=O)CCl)cc1 [TPCK, N-p-Tosyl-L-phenylalanine chloromethyl ketone]
- Inhibition of rSmPOP activity (in words) (recombinant SmPOP): Partial inhibition
- Inhibition (%) (recombinant SmPOP; 1 µM): 67.2±6.2%

Molecule: CC(C)c1ccc(C(=O)c2cccs2)c(SCCCCCCCCN(C)C)n1 [Y-29794 oxalate, 2-[[8-(Dimethylamino)octyl]thio]-6-(1-methylethyl)-3-pyridinyl-2-thienylmethanone oxalate]
- IC50 (human POP (HsPOP); HsPOP, Z-Gly-Pro-AMC, pH 8.0, mean ± S.D., n=3, read-out: IC50 (μM) HsPOP): 0.49 ± 0.03 µM
- IC50 (recombinant SmPOP; read-out: IC50 (μM) SmPOP): 8.6 ± 0.4 µM

Molecule: C[C@H](NC(=O)OCc1ccccc1)C(=O)N1CCC[C@H]1C=O [Z-Ala-Pro-CHO] (Cbz-Ala-Pro-aldehyde)
- IC50 (human POP (HsPOP); read-out: IC50 (μM) HsPOP): 6.1 ± 0.3 µM
- IC50 (recombinant SmPOP; read-out: IC50 (μM) SmPOP): 3.1 ± 0.2 µM

Molecule: C[C@H](NC(=O)OCc1ccccc1)C(=O)N1CCC[C@H]1C(=O)CCl [Z-Ala-Pro-CMK, Z-Ala-Pro-chloromethyl ketone] (Cbz-Ala-Pro-CH2Cl)
- Cleavage of Z-Gly-Pro-AMC by live NTS or adult schistosomes in the presence of inhibitor [2]: abolished
- IC50 (human POP (HsPOP); read-out: IC50 (μM) HsPOP): 0.0168 ± 0.0046 µM
- Inhibition of rSmPOP activity (in words) (recombinant SmPOP): completely inhibited
- inhibition at 1 µM (recombinant SmPOP): 100 ± 3%
- IC50 (recombinant SmPOP; read-out: IC50 (μM) SmPOP): 0.0032 ± 0.0004 µM
- Fragmentation of angiotensin I and bradykinin by adult parasites in the presence of inhibitor [3]: abolished

Molecule: N=C(N)NCCC[C@H](NC(=O)OCc1ccccc1)C(=O)N1CCC[C@H]1C=O [Z-Arg-Pro-CHO] (Cbz-Arg-Pro-aldehyde)
- IC50 (human POP (HsPOP); read-out: IC50 (μM) HsPOP): 2.4 ± 0.2 µM
- IC50 (recombinant SmPOP; read-out: IC50 (μM) SmPOP): 1.3 ± 0.3 µM

Molecule: N=C(N)NCCC[C@H](NC(=O)OCc1ccccc1)C(=O)N1CCC[C@H]1C(=O)CCl [Z-Arg-Pro-CMK] (Cbz-Arg-Pro-CH2Cl)
- IC50 (human POP (HsPOP); read-out: IC50 (μM) HsPOP): 0.0048 ± 0.0006 µM
- IC50 (recombinant SmPOP; read-out: IC50 (μM) SmPOP): 0.0029 ± 0.0001 µM

Molecule: O=C[C@@H]1CCCN1C(=O)CNC(=O)OCc1ccccc1 [Z-Gly-Pro-CHO] (Cbz-Gly-Pro-aldehyde)
- IC50 (recombinant SmPOP; read-out: IC50 (μM) SmPOP): 6.1 ± 0.4 µM

Molecule: NCCCC[C@H](NC(=O)OCc1ccccc1)C(=O)N1CCC[C@H]1C=O [Z-Lys-Pro-CHO] (Cbz-Lys-Pro-aldehyde)
- IC50 (human POP (HsPOP); read-out: IC50 (μM) HsPOP): 7.2 ± 0.6 µM
- IC50 (recombinant SmPOP; read-out: IC50 (μM) SmPOP): 3 ± 0.6 µM
- Severity of phenotype against parasite, Grade [1]: I

Molecule: O=C(O)[C@@H]1CCCN1C(=O)OCc1ccccc1 [Z-Pro-OH]
- Inhibition (%) (recombinant SmPOP; 100 µM): 41.1±1.8%

Molecule: O=C[C@@H]1CCCN1C(=O)[C@@H]1CCCN1C(=O)OCc1ccccc1 [Z-Pro-Pro-CHO, benzyloxycarbonyl-L-prolyl-L-prolinal] (Cbz-Pro-Pro-aldehyde)
- Inhibition of rSmPOP activity (in words) (recombinant SmPOP): completely inhibited
- IC50 (recombinant SmPOP; read-out: IC50 (μM) SmPOP): 0.16 ± 0.03 µM
- inhibition at 1 µM (recombinant SmPOP; read-out: Inhibition (%)): 100 ± 1%
- Severity of phenotype against parasite, Grade [1]: no effect

Molecule: O=C(O)[C@@H]1CCCN1C(=O)[C@@H]1CCCN1C(=O)OCc1ccccc1 [Z-Pro-Pro-OH] (Cbz-Pro-Pro-OH)
- Inhibition (%) (recombinant SmPOP; 100 µM): 37.6±2.1%

Molecule: O=C[C@@H]1CCCN1C(=O)[C@H](Cc1ccc(O)cc1)NC(=O)OCc1ccccc1 [Z-Tyr-Pro-CHO] (Cbz-Tyr-Pro-aldehyde)
- IC50 (human POP (HsPOP); read-out: IC50 (μM) HsPOP): 11.4 ± 0.7 µM
- IC50 (recombinant SmPOP; read-out: IC50 (μM) SmPOP): 4.4 ± 0.4 µM

B1: STI: soybean trypsin inhibitor, protein inhibitor of serine peptidases (protein, UniProt P01070 25-205, looked up)
Trypsin inhibitor A: DFVLDNEGNPLENGGTYYILSDITAFGGIRAAPTGNERCPLTVVQSRNELDKGIGTIISSPYRIRFIAEGHPLSLKFDSFAVIMLCVGIPTEWSVVEDLPEGPAVKIGENKDAMDGWFRLERVSDDEFNNYKLVFCPQQAEDDKCGDIGISIDHDDGTRRLVVSKNKPLVVQFQKLDKESL
- Inhibition of rSmPOP activity (in words) (recombinant SmPOP): neither affected
- Inhibition (%) (recombinant SmPOP; 10 µM): 12.3±3.2%
